Results on 61 molecules are retold here after ChEMBL document CHEMBL3751755, “Developing steroidal aromatase inhibitors-an effective armament to win the battle against breast cancer” (Eur J Med Chem, 2015).

The target in the first data set is T1, Aromatase (Homo sapiens, UniProt P11511).
T1 sequence (P11511 whole entry): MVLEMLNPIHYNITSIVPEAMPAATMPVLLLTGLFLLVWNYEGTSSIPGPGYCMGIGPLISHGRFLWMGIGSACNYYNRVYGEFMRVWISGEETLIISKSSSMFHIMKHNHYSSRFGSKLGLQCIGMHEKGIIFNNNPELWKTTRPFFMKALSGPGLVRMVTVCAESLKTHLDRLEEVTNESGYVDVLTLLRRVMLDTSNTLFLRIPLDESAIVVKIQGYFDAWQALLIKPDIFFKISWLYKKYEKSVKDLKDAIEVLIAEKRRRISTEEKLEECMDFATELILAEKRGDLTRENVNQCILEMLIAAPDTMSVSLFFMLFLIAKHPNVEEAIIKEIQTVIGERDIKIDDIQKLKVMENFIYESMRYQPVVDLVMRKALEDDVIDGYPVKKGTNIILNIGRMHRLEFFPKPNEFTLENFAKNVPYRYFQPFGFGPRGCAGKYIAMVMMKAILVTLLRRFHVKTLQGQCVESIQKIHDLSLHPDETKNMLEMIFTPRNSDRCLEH
Settings: not given
For orientation: Ki means the equilibrium dissociation constant of an inhibitor or competing ligand from its target. The molecule `C[C@]12CC[C@H]3[C@@H](CC[C@]45O[C@H]4C(=O)CC[C@]35C)[C@@H]1CCC2=O` returned a Ki of 5000 nM.
For the molecule `C[C@]12CCC(=O)C=C1C(c1ccc(O)cc1)=C[C@@H]1[C@@H]2CC[C@]2(C)C(=O)CC[C@@H]12`, the Ki was found to be 23 nM.
The same measure, in the same setting: under `C[C@]12CCCC(=O)C1=CC[C@@H]1[C@@H]2CC[C@]2(C)C(=O)CC[C@@H]12` stands 120 nM; under `C[C@]12CCC(=O)C=C1C(Cc1ccccc1)=C[C@@H]1[C@@H]2CC[C@]2(C)C(=O)CC[C@@H]12`, 9 nM; under `C[C@]12CC[C@@H]3c4ccc(O)cc4[C@H](CCCc4ccccc4)C[C@H]3[C@@H]1CCC2=O`, 100 nM.
On the same count and under the same terms, under `C[C@@H]1C[C@@H]2[C@H](CC[C@]3(C)C(=O)CC[C@@H]23)[C@@]2(C)CCCC=C12` stands 5.3 nM; under `C[C@]12CC[C@@H]3c4ccc(O)cc4[C@@H](Cc4ccccc4)C[C@H]3[C@@H]1CC[C@@H]2O`, 100 nM.
Molecule `C[C@]12CC[C@H]3[C@@H](C(=O)[C@H]4O[C@]45C(=O)CCC[C@]35C=O)[C@@H]1CCC2=O` displayed a Ki of 5000 nM.
Molecule `COC1=C[C@@]2(C)C(=CC1=O)CC[C@@H]1[C@@H]2CC[C@]2(C)C(=O)CC[C@@H]12` registered a Ki of 95 nM.
Consider `CCCCCCCC1=C[C@@H]2[C@H](CC[C@]3(C)C(=O)CC[C@@H]23)[C@@]2(C)C=CC(=O)C=C12`, for which the Ki is 2.5 nM.
The same measure, in the same setting: next, `C[C@]12CCC(=O)C=C1[C@H](CCCCc1ccccc1)C[C@@H]1[C@@H]2CC[C@]2(C)C(=O)CC[C@@H]12`: 16 nM; `C[C@]12CC[C@@H]3c4cc(F)c(O)cc4CC[C@H]3[C@@H]1CC[C@@H]2O`: 100 nM.
The same measure, in the same setting: next, `CCC1=C[C@@H]2[C@H](CC[C@]3(C)C(=O)CC[C@@H]23)[C@@]2(C)C=CC(=O)C=C12`: 2.5 nM.
Consider `CC(=O)OC1=C2CC[C@@H]3[C@H](CC[C@]4(C)C(=O)CC[C@@H]34)[C@@]2(C)CCC1`, for which the Ki was 60 nM.
In turn, `CCC1=C[C@@H]2[C@H](CC[C@]3(C)C(=O)CC[C@@H]23)[C@@]2(C)CCC(=O)C=C12` gave an inhibition constant Ki of 17 nM.
Still for that read-out and setting: under `CCCCCCC1=C[C@@H]2[C@H](CC[C@]3(C)C(=O)CC[C@@H]23)[C@@]2(C)CCC(=O)C=C12` stands 17 nM; under `C[C@]12CC[C@@H]3c4cc(Br)c(O)cc4CC[C@H]3[C@@H]1CC[C@@H]2O`, 100 nM; under `CO[C@@H]1C[C@@H]2[C@H](CC[C@]3(C)C(=O)CC[C@@H]23)[C@@]2(C)CCCC=C12`, 12 nM.
For the molecule `Cc1cc2c(cc1O)CC[C@@H]1[C@@H]2CC[C@]2(C)[C@@H](O)CC[C@@H]12`, affinity was put at a Ki of 100 nM.
For the molecule `CCCCCCCC1=C[C@@H]2[C@H](CC[C@]3(C)C(=O)CC[C@@H]23)[C@@]2(C)CCC(=O)C=C12`, the affinity corresponds to a Ki of 17 nM.
On the same count and under the same terms, under `C[C@]12CC[C@H]3[C@@H](C(=O)[C@H]4O[C@]45C(=O)CCC[C@]35C)[C@@H]1CCC2=O` stands 5000 nM.
The same measure, in the same setting: under `C[C@]12CCC(=O)C=C1[C@@H](CCc1ccccc1)C[C@@H]1[C@@H]2CC[C@]2(C)C(=O)CC[C@@H]12` stands 16 nM.
Same read-out and setting: next, `C[C@]12CC[C@@H]3c4ccc(O)cc4[C@@H](CCCc4ccccc4)C[C@H]3[C@@H]1CC[C@@H]2O`: 100 nM; `CCCCCCC1=C[C@@H]2[C@H](CC[C@]3(C)C(=O)CC[C@@H]23)[C@@]2(C)C=CC(=O)C=C12`: 2.5 nM.
`C[C@]12CC[C@@H]3c4ccc(O)cc4CC[C@H]3[C@@H]1CCC2=O` [ESTRONE] had a Ki of 2500 nM.
Regarding `C[C@]12CC[C@@H]3c4cc(Cl)c(O)cc4CC[C@H]3[C@@H]1CCC2=O`, the Ki worked out at 100 nM.
In turn, `C[C@]12CC[C@H]3[C@@H](CC=C4CCCC[C@@]43C)[C@@H]1CC[C@@H]2O` yielded a Ki of 58 nM.
Consider `C[C@]12C=CC(=O)C=C1C(c1ccc(OS(N)(=O)=O)cc1)=C[C@@H]1[C@@H]2CC[C@]2(C)C(=O)CC[C@@H]12`, for which the affinity corresponds to a Ki of 56 nM.

The next data set deals with T1, Aromatase.
Settings: not given
The source holds these as a separate data set.
`C[C@]12C=CC(=O)C=C1C[C@@H](CCc1ccccc1)[C@@H]1[C@@H]2CC[C@]2(C)C(=O)CC[C@@H]12` came in with a Ki of 7 nM.
Same read-out and setting: next, `CC(=O)SC1=C2CC[C@@H]3[C@H](CC[C@]4(C)C(=O)CC[C@@H]34)[C@@]2(C)CCC1=O`: 36 nM; `C[C@]12C=CC(=O)C=C1C[C@@H](CCc1ccc(N)cc1)[C@@H]1[C@@H]2CC[C@]2(C)C(=O)CC[C@@H]12`: 7 nM.
As to `C[C@]12CC[C@H]3[C@@H]([C@H]4[C@@H](C5=CCCC[C@@]53C)C4(F)F)[C@@H]1CC[C@@H]2O`, the affinity corresponds to a Ki of 5 nM.
Same read-out and setting: next, `C#C[C@H](OC(C)=O)[C@]12CCC(=O)C=C1C(=O)C[C@@H]1[C@@H]2CC[C@]2(C)C(=O)CC[C@@H]12`: 67000 nM; `C[C@]12CCC(=O)C=C1C[C@H](Cc1ccccc1)[C@@H]1[C@@H]2CC[C@]2(C)C(=O)CC[C@@H]12`: 36 nM; `C[C@]12CCCC=C1[C@@H]1[C@H]([C@@H]3[C@@H]2CC[C@]2(C)C(=O)CC[C@@H]32)C1(F)F`: 5 nM.
On the same count and under the same terms, under `C[C@]12CCC(=O)C=C1[C@@H]1[C@H]([C@@H]3[C@@H]2CC[C@]2(C)C(=O)CC[C@@H]32)C1(F)F` stands 5 nM; under `C[C@]12CCC(=O)C=C1C=C(CCc1ccccc1)[C@@H]1[C@@H]2CC[C@]2(C)C(=O)CC[C@@H]12`, 60.9 nM.
Consider `C[C@]12C=CC(=O)C=C1C[C@@H](CCCc1ccccc1)[C@@H]1[C@@H]2CC[C@]2(C)C(=O)CC[C@@H]12`, for which the Ki is 7 nM.
On the same count and under the same terms, next, `C[C@]12CCC(=O)C=C1C[C@@H](Cc1ccccc1)[C@@H]1[C@@H]2CC[C@]2(C)C(=O)CC[C@@H]12`: 18.9 nM; `C[C@]12CCC(=O)C(OCc3ccccc3)=C1CC[C@@H]1[C@@H]2CC[C@]2(C)C(=O)CC[C@@H]12`: 38 nM.
Regarding `C#C[C@@H](OC(C)=O)[C@@]12CCC(=O)C=C1C(=O)C[C@@H]1[C@@H]2CC[C@]2(C)C(=O)CC[C@@H]12`, affinity was put at a Ki of 75000 nM.
Still for that read-out and setting: under `C[C@]12CC[C@H]3[C@@H]([C@H](Cc4ccccc4)CC4=CC(=O)CC[C@@]43C)[C@@H]1CC[C@@H]2O` stands 36 nM.
Molecule `CCCSC1=C2CC[C@@H]3[C@H](CC[C@]4(C)C(=O)CC[C@@H]34)[C@@]2(C)CCC1=O` gave a Ki of 36 nM.
Same read-out and setting: next, `C[C@]12CC[C@H]3[C@@H](CCC4=CCCC[C@@]43CO)[C@@H]1CC[C@@H]2O`: 170 nM; `CSC1=C2CC[C@@H]3[C@H](CC[C@]4(C)C(=O)CC[C@@H]34)[C@@]2(C)CCC1=O`: 36 nM.
Still for that read-out and setting: next, `C[C@]12CCCC=C1CC[C@@H]1[C@@H]2CC[C@]2(C)C(=O)[C@H](Br)C[C@@H]12`: 228 nM; `C[C@]12CC[C@H]3[C@@H](CCC4=CCCC[C@@]43C(F)F)[C@@H]1CCC2=O`: 170 nM; `C[C@]12CCC(=O)C=C1C[C@@H](CCc1ccccc1)[C@@H]1[C@@H]2CC[C@]2(C)C(=O)CC[C@@H]12`: 13.1 nM.
Consider `C[C@]12CCC(=O)C=C1C=C(c1ccccc1)[C@@H]1[C@@H]2CC[C@]2(C)C(=O)CC[C@@H]12`, for which the Ki came out at 1420 nM.
Molecule `C[C@]12C=CC(=O)C=C1C[C@@H](Cc1ccccc1)[C@@H]1[C@@H]2CC[C@]2(C)C(=O)CC[C@@H]12` gave a Ki of 7 nM.
In the case of `C[C@]12CCC(=O)C=C1C=C(Cc1ccccc1)[C@@H]1[C@@H]2CC[C@]2(C)C(=O)CC[C@@H]12`, the Ki came out at 60.9 nM.
The same measure, in the same setting: next, `C[C@]12C=CC(=O)C=C1C[C@@H](CCCc1ccc([N+](=O)[O-])cc1)[C@@H]1[C@@H]2CC[C@]2(C)C(=O)CC[C@@H]12`: 7 nM.
On the same count and under the same terms, under `C[C@]12C=CC(=O)C=C1C[C@@H](CCc1ccc([N+](=O)[O-])cc1)[C@@H]1[C@@H]2CC[C@]2(C)C(=O)CC[C@@H]12` stands 7 nM; under `C[C@]12CCCC=C1CC[C@@H]1[C@@H]2CC[C@]2(C)C(=O)[C@@H](Br)C[C@@H]12`, 455 nM.
On to `C[C@]12CCC(=O)C=C1C[C@H](CCc1ccccc1)[C@@H]1[C@@H]2CC[C@]2(C)C(=O)CC[C@@H]12`, for which the Ki was 36 nM.
Still for that read-out and setting: under `CCSC1=C2CC[C@@H]3[C@H](CC[C@]4(C)C(=O)CC[C@@H]34)[C@@]2(C)CCC1=O` stands 36 nM.

A further data set deals with T1, Aromatase. In words: Inhibition of aromatase (unknown origin). Set-up: inhibition (INH): concentration or dose not given beside the values.
Settings: not given
For `C[C@]12CC[C@H]3[C@@H](CCC4=CC(=O)CC[C@@]43[C@H]3CN3)[C@@H]1CC[C@@H]2O`, the Ki worked out at 3.4 nM.
For `C[C@]12CC[C@H]3[C@@H](CCC4=CC(=O)CC[C@@]43[C@H]3CN3)[C@@H]1CCC2=O`, the Ki was determined as 3.4 nM.
For orientation: IC50 means the concentration that gives 50% inhibition. For the molecule `CC(=O)O[C@H]1[C@@H]2[C@H](CC[C@]3(C)C(=O)CC[C@@H]23)[C@@]2(C)CCC(=O)C=C2[C@@H]1N=[N+]=[N-]`, the IC50 turned out to be 400 nM.
As to `C[C@]12CC[C@H]3[C@@H](CCC4=CC(=O)CC[C@@]43[C@@H]3CN3)[C@@H]1CCC2=O`, the Ki worked out at 3.4 nM.

The data set is the same for the next values; noted with them: human.
`CC(=O)[C@@]1(C)CC[C@H]2[C@@H](CCC3=C(O)C(=O)CC[C@@]32C)C1CC#N` (stereo partly specified): the “inhibition (INH)” value was 46.5%.
